Experiments:
EGFR WT = EGFR WT (Homo sapiens, UniProt P00533); assay: HTRF-based EGFR biochemical assay, WT; settings: 100 μM ATP, enzyme 5 nM
EGFR L858R = EGFR L858R (Homo sapiens, UniProt P00533, L858R); assay: HTRF-based EGFR biochemical assay, L858R; settings: 100 μM ATP, enzyme 0.1 nM
Procedure: (§1) EGFR biochemical activity measurements were carried out using the homogeneous time-resolved fluorescence (HTRF) assay (Cisbio). Inhibitors and DMSO normalizations were first dispensed to empty black low-volume 384-well plates (Corning) with D300 digital liquid dispenser (HP). All reactions were carried out at room temperature and solutions were added to plates with a Multidrop Combi Reagent Dispenser (ThermoFisher). The reaction mixture (10 μL final volume) contained 1 μM tyrosine kinase peptide-biotin substrate and mutant EGFR in a reaction buffer (50 mM HEPES pH 7.0, 5 mM MgCl2, 1 mM MnCl2, 0.01% BSA, 2 mM TCEP, 0.1 mM NaVO4). […] Enzyme reaction solution (2× concentrations, 5 μL) was added to 384-well plates containing compounds and incubated for 30 mins. Enzyme reactions were initiated with the addition of 5 μL of ATP to a final concentration of 100 μM and reacted for 20 mins.

EGFR L858R/T790M = EGFR L858R/T790M (Homo sapiens, UniProt P00533, L858R/T790M); assay: HTRF-based EGFR biochemical assay, L858R/T790M; settings: 100 μM ATP, enzyme 0.02 nM
Procedure: as §1

EGFR L858R/T790M/C797S = EGFR L858R/T790M/C797S (Homo sapiens, UniProt P00533, C797S/L858R/T790M); assay: HTRF-based EGFR biochemical assay, L858R/T790M/C797S; settings: 100 μM ATP, enzyme 0.02 nM
Procedure: as §1

WT EGFR Ba/F3 cells = WT EGFR Ba/F3 cells (Homo sapiens, UniProt P00533, cells depend on it, form not given); assay: Ba/F3 cell proliferation (Cell Titer Glo), WT; type: cell-based, murine; settings: Ba/F3, 72 hours, value in parentheses, meaning not explained, read-out: WT, inhibition of growth (value in parentheses)
Chain of WT EGFR Ba/F3 cells (P00533 whole entry, stated change not applied): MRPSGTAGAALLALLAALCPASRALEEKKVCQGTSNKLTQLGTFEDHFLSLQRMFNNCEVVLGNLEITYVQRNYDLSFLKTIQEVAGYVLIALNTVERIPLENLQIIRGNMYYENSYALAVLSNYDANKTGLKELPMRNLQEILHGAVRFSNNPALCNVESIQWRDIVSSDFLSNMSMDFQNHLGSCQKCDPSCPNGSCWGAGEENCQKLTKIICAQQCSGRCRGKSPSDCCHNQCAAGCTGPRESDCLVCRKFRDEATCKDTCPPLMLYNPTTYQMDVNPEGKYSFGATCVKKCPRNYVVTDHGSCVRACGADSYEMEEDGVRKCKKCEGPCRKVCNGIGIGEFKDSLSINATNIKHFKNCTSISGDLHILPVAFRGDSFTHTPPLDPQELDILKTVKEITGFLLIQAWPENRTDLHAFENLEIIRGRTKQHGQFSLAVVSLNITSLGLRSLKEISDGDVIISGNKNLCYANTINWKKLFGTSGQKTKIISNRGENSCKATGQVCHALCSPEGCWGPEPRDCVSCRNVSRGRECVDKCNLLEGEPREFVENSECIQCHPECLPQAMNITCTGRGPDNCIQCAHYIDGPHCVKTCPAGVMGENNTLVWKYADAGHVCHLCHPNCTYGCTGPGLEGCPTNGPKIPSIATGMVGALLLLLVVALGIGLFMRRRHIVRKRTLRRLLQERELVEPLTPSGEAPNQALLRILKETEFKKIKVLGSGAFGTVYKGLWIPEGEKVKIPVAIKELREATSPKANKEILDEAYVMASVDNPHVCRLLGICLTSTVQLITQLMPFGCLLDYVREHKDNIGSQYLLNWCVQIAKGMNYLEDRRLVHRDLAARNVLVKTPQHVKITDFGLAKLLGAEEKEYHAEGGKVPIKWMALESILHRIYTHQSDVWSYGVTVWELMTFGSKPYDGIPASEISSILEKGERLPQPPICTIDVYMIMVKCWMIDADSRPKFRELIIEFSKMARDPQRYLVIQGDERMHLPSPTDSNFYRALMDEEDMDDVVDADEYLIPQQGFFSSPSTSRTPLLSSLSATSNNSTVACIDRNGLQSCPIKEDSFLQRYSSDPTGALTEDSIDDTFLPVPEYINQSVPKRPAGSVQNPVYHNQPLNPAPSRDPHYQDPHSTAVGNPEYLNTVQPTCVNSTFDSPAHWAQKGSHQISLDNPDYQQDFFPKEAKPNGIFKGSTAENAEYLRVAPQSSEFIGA
Procedure: (§2) 100 units/mL streptomycin. The EGFR I941R mutation was introduced via site directed mutagenesis using the Quick Change Site-Directed Mutagenesis kit (Stratagene; La Jolla, CA) according to the manufacturer's instructions. All constructs were confirmed by DNA sequencing. The constructs were shuttled into the retroviral vector JP1540 using the Cre-recombination system (Agilent Technologies, Santa Clara, CA). […] Stable clones were obtained by selection in puromycin (2 μg/ml).
(§3) Growth and inhibition of growth was assessed by the Cell Titer Glo assay (Promega, Madison, WI) and was performed according to the manufacturer's instructions. The Cell Titer Glo assay is a luminescence-based method used to determine the number of viable cells based on quantitation of the ATP present, which is directly proportional to the amount of metabolically active cells present. […] All experimental points were set up in triplicates in 384-well plates and all experiments were repeated at least three times. […] The curves were fitted using a non-linear regression model with a sigmoidal dose response.

EGFR L858R Ba/F3 cells = EGFR L858R Ba/F3 cells (Homo sapiens, UniProt P00533, L858R, cells depend on it); assay: Ba/F3 cell proliferation (Cell Titer Glo), L858R; type: cell-based, murine; settings: Ba/F3, 72 hours, value in parentheses, meaning not explained, read-out: L858R, inhibition of growth (value in parentheses)
Chain of EGFR L858R Ba/F3 cells (P00533 whole entry L858R): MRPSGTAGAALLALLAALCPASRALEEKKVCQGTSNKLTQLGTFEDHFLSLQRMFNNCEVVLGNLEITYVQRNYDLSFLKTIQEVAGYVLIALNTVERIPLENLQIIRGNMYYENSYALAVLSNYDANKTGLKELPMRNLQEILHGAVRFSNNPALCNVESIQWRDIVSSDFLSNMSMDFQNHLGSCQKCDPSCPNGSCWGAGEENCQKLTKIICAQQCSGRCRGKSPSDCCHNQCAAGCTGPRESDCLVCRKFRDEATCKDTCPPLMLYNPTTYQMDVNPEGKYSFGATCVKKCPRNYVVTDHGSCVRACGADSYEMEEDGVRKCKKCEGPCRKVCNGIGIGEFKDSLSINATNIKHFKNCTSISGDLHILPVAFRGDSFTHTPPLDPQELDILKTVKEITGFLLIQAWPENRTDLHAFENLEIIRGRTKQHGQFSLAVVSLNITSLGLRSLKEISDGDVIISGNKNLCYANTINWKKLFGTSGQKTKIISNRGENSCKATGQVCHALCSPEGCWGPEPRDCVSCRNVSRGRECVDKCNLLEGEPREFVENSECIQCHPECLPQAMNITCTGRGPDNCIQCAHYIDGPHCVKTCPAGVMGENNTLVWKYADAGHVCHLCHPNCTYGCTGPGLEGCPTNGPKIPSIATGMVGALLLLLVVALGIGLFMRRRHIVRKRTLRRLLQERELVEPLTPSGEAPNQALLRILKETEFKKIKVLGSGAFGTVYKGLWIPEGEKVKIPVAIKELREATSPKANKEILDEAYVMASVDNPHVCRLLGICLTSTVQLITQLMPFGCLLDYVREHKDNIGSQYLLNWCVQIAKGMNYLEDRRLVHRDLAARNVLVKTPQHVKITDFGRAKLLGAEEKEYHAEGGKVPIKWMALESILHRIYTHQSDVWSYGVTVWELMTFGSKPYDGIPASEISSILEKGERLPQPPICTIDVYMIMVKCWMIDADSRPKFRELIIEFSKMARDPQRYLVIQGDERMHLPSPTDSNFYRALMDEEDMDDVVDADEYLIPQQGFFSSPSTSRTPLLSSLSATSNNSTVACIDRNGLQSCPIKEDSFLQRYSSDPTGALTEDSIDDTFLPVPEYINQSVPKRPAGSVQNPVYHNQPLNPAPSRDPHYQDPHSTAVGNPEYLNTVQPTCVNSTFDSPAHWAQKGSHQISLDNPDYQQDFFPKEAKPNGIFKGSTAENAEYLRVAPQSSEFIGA
Procedure: as §2, §3

[1] = biological target: EGFR L858R/T790M Ba/F3 cells (Homo sapiens, UniProt P00533, T790M/L858R, cells depend on it); assay: Ba/F3 cell proliferation (Cell Titer Glo), L858R/T790M; type: cell-based, murine; settings: Ba/F3, 72 hours, value in parentheses, meaning not explained, read-out: L858R/T790M, inhibition of growth (value in parentheses)
Chain of EGFR L858R/T790M Ba/F3 cells (P00533 whole entry T790M/L858R): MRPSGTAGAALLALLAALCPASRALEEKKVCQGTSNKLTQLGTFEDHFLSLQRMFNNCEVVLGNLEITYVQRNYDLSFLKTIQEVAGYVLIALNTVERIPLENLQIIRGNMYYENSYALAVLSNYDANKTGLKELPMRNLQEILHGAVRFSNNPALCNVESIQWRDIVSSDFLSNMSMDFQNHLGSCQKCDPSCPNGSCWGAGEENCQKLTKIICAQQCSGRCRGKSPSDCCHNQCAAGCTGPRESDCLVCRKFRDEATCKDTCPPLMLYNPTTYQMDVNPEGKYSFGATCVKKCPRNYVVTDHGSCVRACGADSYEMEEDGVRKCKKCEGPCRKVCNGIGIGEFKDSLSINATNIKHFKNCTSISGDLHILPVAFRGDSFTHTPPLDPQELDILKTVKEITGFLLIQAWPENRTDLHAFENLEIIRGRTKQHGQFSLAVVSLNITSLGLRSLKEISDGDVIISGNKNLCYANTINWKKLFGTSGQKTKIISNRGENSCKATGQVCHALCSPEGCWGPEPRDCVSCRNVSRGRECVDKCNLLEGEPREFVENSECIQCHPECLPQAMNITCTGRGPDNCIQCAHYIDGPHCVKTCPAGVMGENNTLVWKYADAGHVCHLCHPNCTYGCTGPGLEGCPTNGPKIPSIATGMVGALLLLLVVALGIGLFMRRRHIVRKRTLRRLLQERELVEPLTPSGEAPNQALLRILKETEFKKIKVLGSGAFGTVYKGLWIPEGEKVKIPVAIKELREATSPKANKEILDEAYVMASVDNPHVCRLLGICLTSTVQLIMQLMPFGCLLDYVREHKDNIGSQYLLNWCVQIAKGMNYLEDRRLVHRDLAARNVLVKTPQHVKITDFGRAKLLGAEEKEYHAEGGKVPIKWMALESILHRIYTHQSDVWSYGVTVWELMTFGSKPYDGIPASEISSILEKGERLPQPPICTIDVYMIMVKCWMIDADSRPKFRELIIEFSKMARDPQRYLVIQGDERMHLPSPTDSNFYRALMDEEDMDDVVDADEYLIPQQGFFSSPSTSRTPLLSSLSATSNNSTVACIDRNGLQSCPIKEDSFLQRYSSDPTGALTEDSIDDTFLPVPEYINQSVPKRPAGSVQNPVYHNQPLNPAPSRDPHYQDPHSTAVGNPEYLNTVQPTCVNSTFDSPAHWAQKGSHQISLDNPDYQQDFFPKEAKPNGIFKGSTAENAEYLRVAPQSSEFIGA
Procedure: as §2, §3

[2] = biological target: EGFR L858R/T790M/C797S Ba/F3 cells (Homo sapiens, UniProt P00533, T790M/C797S/L858R, cells depend on it); assay: Ba/F3 cell proliferation (Cell Titer Glo), L858R/T790M/C797S; type: cell-based, murine; settings: Ba/F3, 72 hours, value in parentheses, meaning not explained, read-out: L858R/T790M/C797S, inhibition of growth (value in parentheses)
Chain of EGFR L858R/T790M/C797S Ba/F3 cells (P00533 whole entry T790M/C797S/L858R): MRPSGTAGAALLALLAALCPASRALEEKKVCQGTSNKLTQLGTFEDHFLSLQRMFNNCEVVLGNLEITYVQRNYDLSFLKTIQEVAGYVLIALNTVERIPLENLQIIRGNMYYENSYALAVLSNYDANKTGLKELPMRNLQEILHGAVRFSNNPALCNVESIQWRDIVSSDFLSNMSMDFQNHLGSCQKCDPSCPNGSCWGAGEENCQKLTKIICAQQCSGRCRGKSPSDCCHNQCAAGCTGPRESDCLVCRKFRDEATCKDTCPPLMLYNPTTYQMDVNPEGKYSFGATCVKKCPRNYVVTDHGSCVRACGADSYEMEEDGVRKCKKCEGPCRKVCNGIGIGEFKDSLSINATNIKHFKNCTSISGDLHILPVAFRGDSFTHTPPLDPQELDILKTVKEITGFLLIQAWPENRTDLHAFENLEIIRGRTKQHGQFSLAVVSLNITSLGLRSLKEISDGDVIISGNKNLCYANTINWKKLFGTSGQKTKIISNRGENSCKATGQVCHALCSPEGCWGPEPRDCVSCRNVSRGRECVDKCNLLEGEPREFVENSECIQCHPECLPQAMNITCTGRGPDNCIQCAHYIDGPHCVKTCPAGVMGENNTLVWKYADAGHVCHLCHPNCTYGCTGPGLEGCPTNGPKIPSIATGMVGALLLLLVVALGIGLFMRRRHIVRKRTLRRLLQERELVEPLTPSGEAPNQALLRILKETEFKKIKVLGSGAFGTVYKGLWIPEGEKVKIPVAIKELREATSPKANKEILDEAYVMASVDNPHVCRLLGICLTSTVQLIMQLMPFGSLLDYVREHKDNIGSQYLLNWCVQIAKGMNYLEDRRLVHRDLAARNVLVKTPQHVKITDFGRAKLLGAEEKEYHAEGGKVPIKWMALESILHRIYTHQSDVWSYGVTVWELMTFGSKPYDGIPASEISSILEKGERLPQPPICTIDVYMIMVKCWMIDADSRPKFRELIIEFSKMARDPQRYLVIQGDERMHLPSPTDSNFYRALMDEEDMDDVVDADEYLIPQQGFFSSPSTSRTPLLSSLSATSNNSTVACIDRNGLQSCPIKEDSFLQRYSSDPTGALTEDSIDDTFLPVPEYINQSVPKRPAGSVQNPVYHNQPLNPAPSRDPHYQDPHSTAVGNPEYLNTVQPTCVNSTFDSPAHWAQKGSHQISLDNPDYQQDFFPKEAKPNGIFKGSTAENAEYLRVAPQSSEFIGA
Procedure: as §2, §3

Q: Which IC50 (EGFR WT) does the source give for CSc1nc(-c2cccc(NC(=O)c3ccccc3CN3Cc4ccccc4C3=O)c2)c(-c2ccnc(NC(C)=O)c2)[nH]1 [Compound 047, N-(3-(5-(2-acetamidopyridin-4-yl)-2-(methylthio)-1H-imidazol-4-yl)phenyl)-2-((1-oxoisoindolin-2-yl)methyl)benzamide] here?
A: > 100000 nM

Q: What about the IC50 (EGFR L858R) of the same compound?
A: 96 nM

Q: And the IC50 (EGFR L858R/T790M)?
A: 759 nM

Q: And the IC50 (EGFR L858R/T790M/C797S)?
A: 610 nM

Q: And the EC50 (WT EGFR Ba/F3 cells)?
A: > 4300 nM

Q: What about the EC50 (EGFR L858R Ba/F3 cells) of the same compound?
A: > 10000 nM

Q: And the EC50 [1]?
A: > 10000 nM

Q: What about the EC50 [2] of the same compound?
A: > 10000 nM

Q: For C=CC(=O)Nc1ccc(OC)c(Nc2cc(-c3[nH]c(SC)nc3-c3cccc(NC(=O)c4ccccc4CN4Cc5ccccc5C4=O)c3)ccn2)c1 [Compound 064, N-(3-(5-(2-((5-acrylamido-2-methoxyphenyl)amino)pyridin-4-yl)-2-(methylthio)-1H-imidazol-4-yl)phenyl)-2-((1-oxoisoindolin-2-yl)methyl)benzamide], which IC50 (EGFR WT) is on record?
A: 701 nM

Q: What about the IC50 (EGFR L858R) of the same compound?
A: 11 nM

Q: What about the IC50 (EGFR L858R/T790M) of the same compound?
A: 8 nM

Q: What about the IC50 (EGFR L858R/T790M/C797S) of the same compound?
A: 206 nM

Q: And the EC50 (WT EGFR Ba/F3 cells)?
A: > 4000 nM

Q: What about the EC50 (EGFR L858R Ba/F3 cells) of the same compound?
A: 500 nM

Q: And the EC50 [1]?
A: 2500 nM

Q: And the EC50 [2]?
A: > 10000 nM

Q: With CSc1nc(-c2cccc(NC(=O)c3ccccc3CN3C(=O)c4ccccc4C3=O)c2)c(-c2ccnc(Nc3ccccc3)c2)[nH]1 [Compound 067, 2-((1,3-dioxoisoindolin-2-yl)methyl)-N-(3-(2-(methylthio)-5-(2-(phenylamino)pyridin-4-yl)-1H-imidazol-4-yl)phenyl)benzamide] as the compound, how does the EC50 (WT EGFR Ba/F3 cells) read?
A: > 3300 nM

Q: And the EC50 (EGFR L858R Ba/F3 cells)?
A: > 8700 nM

Q: And the EC50 [1]?
A: > 10000 nM

Q: What about the EC50 [2] of the same compound?
A: > 10000 nM

Q: Which results are given for CSc1nc(-c2cccc(NC(=O)c3c(F)ccc(O)c3CN3C(=O)c4ccccc4C3=O)c2)c(-c2ccnc(Nc3ccccc3)c2)[nH]1 [Compound 068, 2-((1,3-dioxoisoindolin-2-yl)methyl)-6-fluoro-3-hydroxy-N-(3-(2-(methylthio)-5-(2-(phenylamino)pyridin-4-yl)-1H-imidazol-4-yl)phenyl)benzamide]?
A: EC50 (WT EGFR Ba/F3 cells): > 5600 nM; EC50 (EGFR L858R Ba/F3 cells): > 10000 nM; EC50 [1]: > 10000 nM; EC50 [2]: > 10000 nM

Q: CSc1nc(-c2cccc(NC(=O)c3ccccc3CN3Cc4ccccc4C3=O)c2)c(-c2ccnc(Nc3ccccc3)c2)[nH]1 [Compound 069, N-(3-(2-(methylthio)-5-(2-(phenylamino)pyridin-4-yl)-1H-imidazol-4-yl)phenyl)-2-((1-oxoisoindolin-2-yl)methyl)benzamide] was tested. Which EC50 (WT EGFR Ba/F3 cells) did it give?
A: > 2100 nM

Q: And the EC50 (EGFR L858R Ba/F3 cells)?
A: > 5300 nM

Q: And the EC50 [1]?
A: > 5600 nM

Q: What about the EC50 [2] of the same compound?
A: > 10000 nM

— US20230406838A1, “MUTANT SELECTIVE EGFR INHIBITORS AND METHODS OF USE THEREOF” (Dana-Farber Cancer Institute, Inc., priority 2020, published 2023)
